From EP0010358A1, “Beta-lactam compounds, processes for their preparation, compositions containing them, intermediates of use in their preparation and methods for the production thereof” (GLAXO GROUP LIMITED, priority 1978, dated 1980)
Converted amounts (≈) assume the structure as drawn. Read-outs that look alike come from different tables or passages of the source.

Columns and labels:
Test in all cases: Determination of Minimum Inhibitory Concentrations (MIC), agar dilution
Format in all cases: cell-based
H. influenzae 1184E = conditions: Haemophilus influenzae
Description: (§1) Serial two-fold dilutions of freshly prepared test solutions were made into Oxoid No. 1 Nutrient agar with or without added enrichment and poured into petri dishes. Plates were inoculated with a multipoint inoculator with inoculum containing approximately 10^5 colony forming units of the organisms shown in the following Table, all of which organisms are clinical isolates. The MIC, quoted in the Table as µg/ml, was read after 18 hours incubation at 37°C as the lowest concentration which inhibited growth.

K. aerogenes 1522E = conditions: Klebsiella aerogenes
Description: as §1

Micrococcus Sp 1810E = conditions: SP1810E
Description: as §1

E. cloacae 1321E = conditions: Enterobacter cloacae
Description: as §1

S. marcescens 1324E = conditions: Serratia marcescens
Description: as §1

E. cloacae 1051E = conditions: Enterobacter cloacae
Description: as §1

Staph. aureus 853E = conditions: Staphylococcus aureus
Description: as §1

E. coli 851E = conditions: Escherichia coli
Description: as §1

[1] = H. influenzae 1184E, clinical isolate, Oxoid No. 1 Nutrient agar, approx. 10^5 colony forming units, 18 hours at 37°C, read-out: MIC
[2] = K. aerogenes 1522E, clinical isolate, Oxoid No. 1 Nutrient agar, approx. 10^5 colony forming units, 18 hours at 37°C, read-out: MIC
[3] = Micrococcus Sp 1810E, clinical isolate, Oxoid No. 1 Nutrient agar, approx. 10^5 colony forming units, 18 hours at 37°C, read-out: MIC
[4] = E. cloacae 1321E, clinical isolate, Oxoid No. 1 Nutrient agar, approx. 10^5 colony forming units, 18 hours at 37°C, read-out: MIC
[5] = S. marcescens 1324E, clinical isolate, Oxoid No. 1 Nutrient agar, approx. 10^5 colony forming units, 18 hours at 37°C, read-out: MIC
[6] = E. cloacae 1051E, clinical isolate, Oxoid No. 1 Nutrient agar, approx. 10^5 colony forming units, 18 hours at 37°C, read-out: MIC
[7] = Staph. aureus 853E, clinical isolate, Oxoid No. 1 Nutrient agar, approx. 10^5 colony forming units, 18 hours at 37°C, read-out: MIC
[8] = E. coli 851E, clinical isolate, Oxoid No. 1 Nutrient agar, approx. 10^5 colony forming units, 18 hours at 37°C, read-out: MIC

SMILES	MIC (H. influenzae 1184E; [1]) [µg/mL]	MIC (K. aerogenes 1522E; [2]) [µg/mL]	MIC (Micrococcus Sp 1810E; [3]) [µg/mL]	MIC (E. cloacae 1321E; [4]) [µg/mL]	MIC (S. marcescens 1324E; [5]) [µg/mL]	MIC (E. cloacae 1051E; [6]) [µg/mL]	MIC (Staph. aureus 853E; [7]) [µg/mL]	MIC (E. coli 851E; [8]) [µg/mL]	MIC (H. influenzae 1184E; 1184E, 18 h) [µg/mL]	MIC (K. aerogenes 1522E; 1522E, 18 h) [µg/mL]	MIC (Micrococcus Sp 1810E; Micrococcus, 18 h) [µg/mL]	MIC (E. cloacae 1321E; 1321E, 18 h) [µg/mL]	MIC (S. marcescens 1324E; 1324E, 18 h) [µg/mL]	MIC (E. cloacae 1051E; 1051E, 18 h) [µg/mL]	MIC (Staph. aureus 853E; 853E, 18 h) [µg/mL]	MIC (E. coli 851E; 851E, 18 h) [µg/mL]
O=CNCCC1=C(C(=O)O)N2C(=O)CC2S1 (racemic) [Example 4, (5RS)-2-(2-Formamidoethyl)pen-2-em-3-carboxylic acid]	2 (≈ 8.26 µM)	2 (≈ 8.26 µM)	0.1 (≈ 0.413 µM)	1 (≈ 4.13 µM)	2 (≈ 8.26 µM)	1 (≈ 4.13 µM)	2 (≈ 8.26 µM)	1 (≈ 4.13 µM)	–	–	–	–	–	–	–	–
CC(=O)NCCC1=C(C(=O)[O-])N2C(=O)CC2S1.[K+] (racemic) [Example 7, Potassium (5RS)-2-(2-acetamidoethyl)pen-2-em-3-carboxylate]	–	–	–	–	–	–	–	–	16	8	2	4	31	16	2	8
O=C(NCCC1=C(C(=O)O)N2C(=O)CC2S1)Nc1ccccc1 (racemic) [Example 11, Potassium (5RS)-2-(2-N-phenylureidoethyl)pen-2-em-3-carboxylate]	16	2	0.2	8	8	16	0.2	2	–	–	–	–	–	–	–	–
CNC(=O)NCCC1=C(C(=O)O)N2C(=O)CC2S1 (racemic) [Example 10, Potassium (5RS)-2-(2-N-methylureidoethyl)pen-2-em-3-carboxylate]	8	8	1	8	8	16	62	8	–	–	–	–	–	–	–	–
